Reference: patent US8293909B2, “Compounds for the treatment of hepatitis C” (Bristol-Myers Squibb Company, priority 2008, dated 2012)

Key:
[1] = system: HCV; conditions: cited from earlier work
[2] = system: 1 a replicon; test: HCV replicon luciferase reporter assay, 384 plate protocol, 1a replicon; format: cell-based; conditions: Hepatitis C virus; Table 1; *384 plate protocol and a 1 a replicon
Description: The HCV replicon luciferase assay was developed to monitor the inhibitory effects of compounds described in the disclosure on HCV viral replication. Utilization of a replicon luciferase reporter assay was first described by Krieger et al (Krieger N, Lohmann V, and Bartenschlager R, J. Virol. 75(10):4614-4624 (2001)). HUH-7 cells, constitutively expressing the HCV replicon, were grown in Dulbecco's Modified Eagle Media (DMEM) (Gibco-BRL) containing 10% Fetal calf serum (FCS) (Sigma) and 1 mg/ml G418 (Gibco-BRL). Compounds were serially diluted 3 folds in DMSO for a twenty-point titration and subsequently transferred to sterile 384-well tissue-culture treated plates (Corning cat #3571). The plates were then seeded with 50 μl of cells at a density of 3.0×10^3 cells/well in DMEM containing 4% FCS (final DMSO concentration at 0.5%). After 3 days incubation at 37° C., cells were analyzed for Renilla Luciferase activity using the EnduRen as substrate (Promega cat #E6485). The EnduRen substrate was diluted in DMEM and then added to the plates to a final concentration of 7.5 μM. The plates were incubated for 2 hrs at 37° C. and then read immediately for 30 seconds with Viewlux Imager (PerkinElmer) using a luminescence program. […] The fluorescence signal from each well was read, with an excitation wavelength at 525/10 nm and an emission wavelength of 598/10 nm, using the Viewlux Imager.

[3] = system: HCV replicon cells; test: HCV replicon assay (FRET or luciferase readout); format: cell-based; conditions: Hepatitis C virus, Table 2
Summary of the method: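 Readout was NS3 protease cleavage of an EDANS/DABCYL FRET peptide (20 μM final) in lysed HCV replicon cells, or Renilla luciferase in reporter replicons. Background came from wells with the highest level of control protease inhibitor. EC50 marked the concentration giving 50% signal reduction.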

[4] = biological target: T1, HCV NS5B RdRp genotype 1b (Hepatitis C virus genotype 1b, UniProt Q9WMX2); test: HCV NS5B RdRp enzyme assay (standard / modified); format: biochemical; conditions: Table 2; HCV NS5B genotype 1b
T1 construct: The protein was expressed with an 18 amino acid C-terminal truncation to enhance the solubility; made in house; host or cells: E. coli BL21(DE3), pET21a vector
Summary of the method: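 Genotype 1b NS5B with an 18-aa C-terminal truncation, expressed in E. coli, was tested by SPA incorporation of 3H-UTP (0.29 μM) on polyA/biotin-oligo-dT12. Standard assay: 28 nM enzyme, 6 nM template, 180 nM primer, 60 min at 30 °C, pH 7.5, 2% DMSO. Modified assay: 14 nM enzyme added to compound first, 0.2 nM template, 20 nM bead-precaptured primer, 4 h at 30 °C. IC50 used seven inhibitor concentrations.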

[5] = system: HCV replicon in HUH-7 cells; test: HCV replicon luciferase reporter assay, 384 well plate protocol; format: cell-based; conditions: Hepatitis C virus, Table 2
Description: The HCV replicon luciferase assay was developed to monitor the inhibitory effects of compounds described in the disclosure on HCV viral replication. Utilization of a replicon luciferase reporter assay was first described by Krieger et al (Krieger N, Lohmann V, and Bartenschlager R, J. Virol. 75(10):4614-4624 (2001)). HUH-7 cells, constitutively expressing the HCV replicon, were grown in Dulbecco's Modified Eagle Media (DMEM) (Gibco-BRL) containing 10% Fetal calf serum (FCS) (Sigma) and 1 mg/ml G418 (Gibco-BRL). Compounds were serially diluted 3 folds in DMSO for a twenty-point titration and subsequently transferred to sterile 384-well tissue-culture treated plates (Corning cat #3571). The plates were then seeded with 50 μl of cells at a density of 3.0×10^3 cells/well in DMEM containing 4% FCS (final DMSO concentration at 0.5%). After 3 days incubation at 37° C., cells were analyzed for Renilla Luciferase activity using the EnduRen as substrate (Promega cat #E6485). The EnduRen substrate was diluted in DMEM and then added to the plates to a final concentration of 7.5 μM. The plates were incubated for 2 hrs at 37° C. and then read immediately for 30 seconds with Viewlux Imager (PerkinElmer) using a luminescence program. To assess cytotoxicity of compounds, CC50 values were generated by multiplexing the EnduRen-containing plates with Cell Titer-Blue (Promega, cat #G8082). 3 μl of Cell-Titer Blue was added to each well and incubated for 8 hrs at 37° C. The fluorescence signal from each well was read, with an excitation wavelength at 525/10 nm and an emission wavelength of 598/10 nm, using the Viewlux Imager.

T1 sequence (Q9WMX2 2420-2992): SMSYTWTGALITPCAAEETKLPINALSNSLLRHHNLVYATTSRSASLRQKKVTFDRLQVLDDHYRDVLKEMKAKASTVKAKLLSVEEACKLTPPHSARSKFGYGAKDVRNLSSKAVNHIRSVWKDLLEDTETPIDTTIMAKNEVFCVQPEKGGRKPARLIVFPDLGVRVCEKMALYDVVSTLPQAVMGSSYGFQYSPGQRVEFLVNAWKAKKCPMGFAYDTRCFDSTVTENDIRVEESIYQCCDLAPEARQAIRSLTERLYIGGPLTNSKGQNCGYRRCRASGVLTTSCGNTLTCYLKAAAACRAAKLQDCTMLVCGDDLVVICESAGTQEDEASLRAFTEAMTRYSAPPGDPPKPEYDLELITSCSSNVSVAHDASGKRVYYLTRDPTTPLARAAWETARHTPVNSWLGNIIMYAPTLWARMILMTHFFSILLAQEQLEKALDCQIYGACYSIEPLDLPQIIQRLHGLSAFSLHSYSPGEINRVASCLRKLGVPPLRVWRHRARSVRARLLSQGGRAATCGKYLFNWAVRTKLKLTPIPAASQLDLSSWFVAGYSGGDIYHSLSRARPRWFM

| Molecule | EC50 [3] | IC50 [4] | also measured |
| --- | --- | --- | --- |
| CNC(=O)c1c(-c2ccc(F)cc2)oc2cc(N(CCO)S(C)(=O)=O)c(C3CC3)cc12 [HCV-796] |  |  | hepatic toxicity ([1]; extended dosing of the combination regimens with interferon and ribavirin): hepatic toxicity observed during extended dosing of the combination regimens; HCV RNA levels in patients ([1]; patients): showed an ability to reduce HCV RNA levels in patients |
| CNC(=O)c1c(-c2ccc(F)cc2)nc2ccc(-c3ccc(-c4ccccc4Cl)c(C(=O)NCC(C)C)c3)cn12 [drawing 163] |  |  | EC50 [2]: 0.25 to 1 µM |
| CNC(=O)c1c(-c2ccc(F)cc2)nc2ccc(-c3cc(C(=O)NC4(c5ccccn5)CC4)c(OC)cc3Cl)cn12 [drawing 164] |  |  | EC50 [2]: 0.002 to 0.25 µM |
| CNC(=O)c1c(-c2ccc(F)cc2)nn2ccc(-c3cc(C(=O)NC4(c5ccccn5)CC4)c(OC)cc3C)c(F)c12 [drawing 178] | 0.00839 µM | 0.02 µM |  |
| CNC(=O)c1c(-c2ccc(F)cc2)nn2ccc(-c3cc(C(=O)NC4(c5ccccn5)CC4)ccc3C)cc12 [drawing 179] | 0.01 µM | 0.00515 µM |  |
| CNC(=O)c1c(-c2ccc(F)cc2)nc2ccc(-c3cccc(C(=O)NC(C)(C)C)c3)cn12 [drawing 180] | 0.4 µM | 0.64 µM |  |
| CNC(=O)c1c(-c2ccc(F)cc2)[nH]c2ccc(-c3cccc(C(=O)NC(C)(C)c4ccccc4)c3)cc12 [drawing 181] | 0.46 µM | 0.72 µM |  |
| CNC(=O)c1c(-c2ccc(F)cc2)nn2cc(N(CCO)S(C)(=O)=O)c(-c3cccc(C(=O)NC4(c5ccccn5)CC4)c3)cc12 [drawing 182] | 1.56 µM | 0.06 µM |  |
| CNC(=O)c1c(-c2ccc(F)cc2)sc2ccc(-c3cccc(C(=O)NC(C)(C)C)c3)cc12 [drawing 183] | 1.86 µM | > 4.17 µM |  |
| CNC(=O)c1c(-c2ccc(F)cc2)nn2cc(N(CCO)S(C)(=O)=O)c(OC)cc12 [drawing 184] | 3.99 µM | 2.92 µM |  |
| CNC(=O)c1c(-c2ccc(F)cc2)nn2ccc(-c3cc(C(=O)NC4(c5ccccc5)CC4)ccc3C)c(F)c12 [drawing 185] |  |  | EC50 [5]: 0.00085 µM |
| CNC(=O)c1c(-c2ccc(F)cc2)oc2ncc(-c3cc(C(=O)NC4(c5ccccn5)CC4)ccc3C)cc12 [drawing 186] |  | 0.00465 µM | EC50 [5]: 0.00204 µM |
| CNC(=O)c1c(-c2ccc(F)cc2)oc2ncc(-c3cc(C(=O)NC4(c5ccccn5)CC4)ccc3Cl)cc12 [drawing 187] |  |  | EC50 [5]: 0.0015 µM |
| alpha-interferon and ribavirin |  |  | sustained efficacy ([1]; combination therapy): 40 % of patients |
| pegylated alpha-interferon |  |  | clinical efficacy compared with unmodified alpha-interferon ([1]; monotherapy): superior to unmodified alpha-interferon as monotherapy |
